# What was measured:
# Assay type in all cases: in vivo
# [1] = tested on: bluegrass (annual bluegrass, Poa annua); test: Test D controlled growth environment herbicide test, pre- and postemergence
# Summary of the method: (§1)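 Species sown in silt loam and sprayed preemergence, or grown in peat-based medium to 2–18 cm (1- to 4-leaf stage) and sprayed postemergence, with compounds in non-phytotoxic solvent plus surfactant. Visual injury scored versus controls after 14–21 d in a controlled environment, 0 (no effect) to 100 (complete control).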
# [2] = tested on: bromegrass, downy (downy bromegrass, Bromus tectorum); test: as above
# Summary of the method: as §1
# [3] = tested on: ryegrass, Italian (Italian ryegrass, Lolium multiflorum); test: as above
# Summary of the method: as §1
# [4] = tested on: speedwell (bird's-eye speedwell, Veronica persica); test: as above
# Summary of the method: as §1
# corn (Zea mays) = test: Test E greenhouse herbicide test, pre- and postemergence
# Description: (§2) Seeds of plant species selected from corn (Zea mays), soybean (Glycine max), velvetleaf (Abutilon theophrasti), lambsquarters (Chenopodium album), wild poinsettia (Euphorbia heterophylla), pigweed, palmer (palmer pigweed, Amaranthus palmeri), waterhemp (common waterhemp, Amaranthus rudis), surinam grass (Brachiaria decumbens), crabgrass, large (large crabgrass, Digitaria sanguinalis), crabgrass, Brazilian (Brazilian crabgrass, Digitaria horizontalis), panicum, fall (fall panicum, Panicum dichotomiflorum), foxtail, giant (giant foxtail, Setaria faberii), foxtail, green (green foxtail, Setaria viridis), goosegrass (Eleusine indica), johnsongrass (Sorghum halepense), ragweed (common ragweed, Ambrosia elatior), barnyardgrass (Echinochloa crus-galli), sandbur (southem sandbur, Cenchrus echinatus), arrowleaf sida (Sida rhombifolia), Italian ryegrass (Lolium multiflorum), dayflower (Virginia (VA) dayflower, Commelina virginica), field bindweed (Convolvulus arvensis), momingglory (Ipomoea coccinea), nightshade (eastern black nightshade, Solanum ptycanthum), kochia (Kochia scoparia), nutsedge, yellow (yellow nutsedge, Cyperus esculentus), horseweed (Conyza canadensis), and beggarticks (hairy beggarticks, Bidens pilosa), were planted into a silt loam soil and treated preemergence with test chemicals formulated in a non-phytotoxic solvent mixture which included a surfactant.
# (§3) At the same time, plants from these crop and weed species and also waterhemp_RES1, (ALS & Triazine resistant common waterhemp, Amaranthus rudis), and waterhemp_RES2, (ALS & HPPD resistant common waterhemp, Amaranthus rudis) were planted in pots containing Redi-Earth® planting medium (Scotts Company, 14111 Scottslawn Road, Marysville, Ohio 43041) comprising spaghnum peat moss, vermiculite, wetting agent and starter nutrients were treated with postemergence applications of test chemicals formulated in the same manner. Plants ranged in height from 2 to 18 cm for postemergence treatments (1- to 4-leaf stage). Treated plants and controls were maintained in a greenhouse for 14 to 21 d, after which time all species were compared to controls and visually evaluated. Plant response ratings, summarized in Table E, are based on a scale of 0 to 100 where 0 is no effect and 100 is complete control. A dash (-) response means no test result.
# [5] = tested on: crabgrass, Brazilian (Brazilian crabgrass, Digitaria horizontalis); test: as above
# Description: as §2, §3
# soybean (Glycine max) = test: as above
# Description: as §2, §3
# [6] = tested on: waterhemp (common waterhemp, Amaranthus rudis); test: as above
# Description: as §2, §3
# [7] = Postemergence, 31 g ai/ha, scale 0 to 100 (0 no effect, 100 complete control)
# [8] = Postemergence, 125 g ai/ha, visual rating on scale 0 (no effect) to 100 (complete control), 14 to 21 d
# [9] = Postemergence, 250 g ai/ha, scale 0 to 100 (0 no effect, 100 complete control)
# [10] = Preemergence, 62 g ai/ha, scale 0 to 100 (0 no effect, 100 complete control)
# [11] = Preemergence, 125 g ai/ha, scale 0 to 100 (0 no effect, 100 complete control)
# [12] = Preemergence, 250 g ai/ha, scale 0 to 100, 0 no effect, 100 complete control
# [13] = postemergence, 62 g ai/ha, scale 0 to 100, 0 no effect, 100 complete control
# [14] = 62 g ai/ha, Postemergence, scale 0 to 100 (0 no effect, 100 complete control)
# [15] = 62 g ai/ha, Preemergence, scale 0 to 100 (0 no effect, 100 complete control)
# [16] = 125 g ai/ha, Postemergence, scale 0 to 100 (0 no effect, 100 complete control)
# [17] = 250 g ai/ha, Postemergence, scale 0 to 100 (0 no effect, 100 complete control)
# [18] = Postemergence, 31 g ai/ha, visual, scale 0 no effect to 100 complete control
# [19] = Preemergence, 31 g ai/ha, scale 0 to 100, 0 no effect, 100 complete control
# [20] = Preemergence, 125 g ai/ha, visual, scale 0 no effect to 100 complete control
# [21] = Preemergence, 250 g ai/ha, visual, scale 0 no effect to 100 complete control
# [22] = 125 g ai/ha, Preemergence, scale 0 to 100 (0 no effect, 100 complete control)
compound,measurement,setting,value
CCc1sc2ccc(C)cc2c1-c1c(O)c(C)nn(C)c1=O [Compound 47],Bluegrass plant response rating,[1]; [7],5
same,"Plant response rating, Bluegrass",[1]; [8],10
same,"Plant response rating, Bluegrass",[1]; [9],15
same,"Plant response rating (scale of 0 to 100), Bluegrass","[1]; Preemergence, 31 g ai/ha",0
same,"Plant response rating, Bluegrass",[1]; [10],20
same,"Plant response rating, Bluegrass",[1]; [11],20
same,Bluegrass plant response rating,[1]; [12],20
same,"Plant response rating, Bluegrass",[1]; [13],10
same,"Bromegrass, Downy plant response rating",[2]; [7],5
same,"Plant response rating, Bromegrass, Downy",[2]; [8],5
same,"Plant response rating, Bromegrass, Downy",[2]; [9],5
same,"Plant response rating (scale of 0 to 100), Bromegrass, Downy","[2]; Preemergence, 31 g ai/ha",5
same,"Plant response rating, Bromegrass, Downy",[2]; [10],10
same,"Plant response rating, Bromegrass, Downy",[2]; [11],15
same,"Plant response rating, Bromegrass, Downy",[2]; [12],15
same,"Plant response rating, Bromegrass, Downy",[2]; [13],0
same,"Ryegrass, Italian plant response rating",[3]; [7],10
same,"Plant response rating, Ryegrass, Italian",[3]; [8],30
same,"Plant response rating, Ryegrass, Italian",[3]; [9],45
same,"Plant response rating (scale of 0 to 100), Ryegrass, Italian","[3]; Preemergence, 31 g ai/ha",20
same,"Plant response rating, Ryegrass, Italian",[3]; [10],30
same,"Plant response rating, Ryegrass, Italian",[3]; [11],60
same,"Plant response rating, Ryegrass, Italian",[3]; [12],70
same,"Plant response rating, Ryegrass, Italian",[3]; [13],10
same,Speedwell plant response rating,[4]; [7],10
same,"Plant response rating, Speedwell",[4]; [8],40
same,"Plant response rating, Speedwell",[4]; [9],50
same,"Plant response rating (scale of 0 to 100), Speedwell","[4]; Preemergence, 31 g ai/ha",25
same,"Plant response rating, Speedwell",[4]; [10],25
same,"Plant response rating, Speedwell",[4]; [11],80
same,"Plant response rating, Speedwell",[4]; [12],100
same,"Plant response rating, Speedwell",[4]; [13],10
same,"Plant response rating, Corn",corn (Zea mays); [14],5
same,"Plant response rating, Corn",corn (Zea mays); [15],0
same,"Plant response rating, Corn",corn (Zea mays); [16],5
same,"Plant response rating, Corn",corn (Zea mays); [17],20
same,"Plant response rating, Corn",corn (Zea mays); [18],0
same,"Plant response rating, Corn",corn (Zea mays); [19],0
same,"Plant response rating, Corn",corn (Zea mays); [20],0
same,"Plant response rating, Corn",corn (Zea mays); [21],0
same,"Plant response rating, Crabgrass, Brazil",[5]; [14],20
same,"Plant response rating, Crabgrass, Brazil",[5]; [15],0
same,"Plant response rating, Crabgrass, Brazil",[5]; [16],25
same,"Plant response rating, Crabgrass, Brazil",[5]; [17],40
same,"Plant response rating, Crabgrass, Brazil",[5]; [18],20
same,"Plant response rating, Crabgrass, Brazil",[5]; [19],0
same,"Plant response rating, Crabgrass, Brazil",[5]; [20],0
same,"Plant response rating, Crabgrass, Brazil",[5]; [21],60
same,"Plant response rating, Soybean",soybean (Glycine max); [14],25
same,"Plant response rating, Soybean",soybean (Glycine max); [15],0
same,"Plant response rating, Soybean",soybean (Glycine max); [16],20
same,"Plant response rating, Soybean",soybean (Glycine max); [22],0
same,"Plant response rating, Soybean",soybean (Glycine max); [17],30
same,"Plant response rating, Soybean",soybean (Glycine max); [18],20
same,"Plant response rating, Soybean",soybean (Glycine max); [19],0
same,"Plant response rating, Soybean",soybean (Glycine max); [21],40
same,"Plant response rating, Waterhemp",[6]; [14],80
same,"Plant response rating, Waterhemp",[6]; [15],90
same,"Plant response rating, Waterhemp",[6]; [16],85
same,"Plant response rating, Waterhemp",[6]; [22],90
same,"Plant response rating, Waterhemp",[6]; [17],100
same,"Plant response rating, Waterhemp",[6]; [18],75
same,"Plant response rating, Waterhemp",[6]; [19],50
same,"Plant response rating, Waterhemp",[6]; [21],100

# Source: patent publication US10597388B2, “Pyridazinone herbicides” (FMC CORPORATION, priority 2014, dated 2020)
